According to patent US9227935B2, “Piperidine/piperazine derivatives” (Janssen Pharmaceutica N.V., priority 2007, dated 2016):

These compounds were tested against T1, human DGAT1 (Homo sapiens, UniProt O75907) (assay: DGAT1 FlashPlate inhibition assay with DGAT1 membrane preparations). Conditions: IC50 values expressed in M; pIC50 = -logIC50; inhibition of DGAT1 activity.
T1 construct: FLAG (N); made in house; host or cells: SF9 insect cells (baculovirus, pFastBac); total cell membranes used as the enzyme source
T1 sequence (O75907 1-488): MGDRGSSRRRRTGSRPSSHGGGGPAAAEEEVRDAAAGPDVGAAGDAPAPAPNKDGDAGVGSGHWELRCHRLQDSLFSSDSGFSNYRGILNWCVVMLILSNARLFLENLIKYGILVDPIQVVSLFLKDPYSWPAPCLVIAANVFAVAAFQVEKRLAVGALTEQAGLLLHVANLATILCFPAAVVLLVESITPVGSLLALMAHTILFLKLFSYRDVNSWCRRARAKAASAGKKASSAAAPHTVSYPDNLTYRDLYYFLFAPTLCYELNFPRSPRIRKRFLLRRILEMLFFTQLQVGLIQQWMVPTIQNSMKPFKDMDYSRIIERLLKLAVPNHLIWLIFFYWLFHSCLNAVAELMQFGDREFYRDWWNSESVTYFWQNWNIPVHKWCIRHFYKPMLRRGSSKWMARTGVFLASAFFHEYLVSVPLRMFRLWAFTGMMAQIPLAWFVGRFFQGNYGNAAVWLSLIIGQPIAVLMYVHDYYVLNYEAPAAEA
Type: biochemical
Text: The inhibiting activity of the present compounds on DGAT1 activity was screened in a single well procedure assay using DGAT1 comprising membrane preparations and DGAT1 substrate comprising micelles and determining formed radio-active triacylglycerol coming in close proximity of a flashplate surface by radioluminescence.
Said assay is described in full detail in WO2006/067071, the content of which is incorporated herein by reference.
By DGAT1 activity is meant the transfer of coenzyme A activated fatty acids to the 3-position of 1,2-diacylglycerols, thus forming a triglyceride molecule, by enzyme DGAT1.
human DGAT1 (NM012079.2) was cloned into the pFastBac vector, containing translation start, a FLAG-tag at the N-terminus as described in literature and a viral Kozak sequence (AAX) preceding the ATG to improve expression in insect cells. Expression was done as described in literature (Cases, S., Smith, S. J., Zheng, Y., Myers H. M., Lear, S. R., Sande, E., Novak, S., Collins, C., Welch, C. B., Lusis, A. J., Erickson, S. K. and Farese, R. V. (1998) Proc. Natl. Acad. Sci. USA 95, 13018-13023.) using SF9 cells.
72 h transfected SF9 cells were collected by centrifugation (13000 rpm-15 min-4° C.) and lysed in 2×500 ml lysis buffer (0.1M Sucrose, 50 mM KCl, 40 mM KH2PO4, 30 mM EDTA pH 7.2. Cells were homogenized by cell disruptor. After centrifugation 1380 rpm-15 min-4° C. (SN discarded), pellet was resuspended in 500 ml lysis buffer and total cell membranes collected by ultracentrifugation at 34000 rpm (100 000 g) for 60 min (4° C.). The collected membranes were resuspended in lysis buffer, divided in aliquots and stored with 10% glycerol at −80° C. until use.
Add 1 ml dioleoyl-sn-glycerol (10 mg/ml) to 10 ml of L-α-phosphatidylcholine (1 mg/ml) and 10 ml of L-α-phosphatidyl-L-serine (1 mg/ml) in a thick glass recipient. Evaporate under nitrogen and put on ice for 15 minutes. Reconstitute in 10 ml Tris/HCl (10 mM, pH 7.4) by sonication on ice. The sonification process consists of sonification cycles of 10 seconds in the sonification bath followed by 10 seconds cool down on ice and repeating this sonification cycle till a homogeneous solution is obtained (takes about 15 minutes). The thus obtained micelles are stored at −20° C. till later use and contain DAG at a final concentration of 1.61 mM.
• 50 mM Tris-HCl (pH 7.4), 150 mM MgCl2, 1 mM EDTA, 0.2% BSA. b) N-ethylmaleimide, 5M • Dissolve 5 g into a final volume of 8 ml DMSO 100% and store at −20° C. in aliquots till later use. c) Substrate mix (for 1 384 well plate=3840 μl) • 612 μl micelles stock (51 μM final) • 16.6 μl oleoylCoA 9.7 mM • 23 μl [^3H]-oleoylCoA (49 Ci/mmol, 500 μCi/ml) • 3188.4 μl Tris pH 7.4, 10 mM d) Enzyme mix (for 1 384 well plate=3520 μl) (5 μg/ml) • Add 11.73 μl of DGAT membrane stock (1500 μg/ml stock) to 3508 μl assay buffer. e) Stop mix (for 1 384 well plate=7.68 ml) (250 mM) • Add 384 μl of N-ethylmaleimide (5M) to 3.456 ml DMSO 100%, and further dilute 3.84 ml of said solution with 3.84 ml DMSO 10%. Method
DGAT activity in membrane preparations was assayed in 50 mM Tris-HCl (pH 7.4), 150 mM MgCl2, 1 mM EDTA and 0.2% BSA, containing 50 μM DAG, […] PC/PS and 8.4 μM [^3H]-oleoylCoA (at a specific activity of 30 nCi/well) in a final volume of 50 μl in 384-well format using the red shifted Basic Image FlashPlate™ (Perkin Elmer Cat. No. SMP400).
In detail, 10 μl enzyme mix and 10 μl substrate mix were added to 30 μl of assay buffer, optionally in the presence of 1 μl DMSO (blank and controls) or 1 μl of the compound to be tested. This reaction mixture was incubated for 120 minutes at 37° C. and the enzymatic reaction stopped by adding 20 μl of the stop mix. The plates were sealed and the vesicles allowed to settle overnight at room temperature. Plates were centrifuged for 5 minutes at 1500 rpm and measured in Leadseeker. […]
Compound O=C(Nc1ccc(C2CCN(C(=O)Nc3c(Cl)cccc3Cl)CC2)cc1)C1CNC1 [Compound 46] has an IC50 of 2400 nM. O=C(Nc1ccc(C2CCN(C(=O)Nc3c(Cl)cccc3Cl)CC2)cc1)C1CC(O)CN1 (stereo not drawn) [Compound 47] showed an IC50 of 5370 nM. Work on O=C(Nc1ccc(C2CCN(C(=O)Nc3c(Cl)cccc3Cl)CC2)cc1)C1CSCN1 (stereo not drawn) [Compound 48] yielded an IC50 of 3550 nM. O=C(Nc1ccc(C2CCN(C(=O)Nc3c(Cl)cccc3Cl)CC2)cc1)C1CCCNC1 (stereo not drawn) [Compound 49] gave an IC50 of 8910 nM. Work on CC(C)(C)OC(=O)N1CSCC1C(=O)Nc1ccc(C2CCN(C(=O)Nc3c(Cl)cccc3Cl)CC2)cc1 (stereo not drawn) [Compound 50] yielded an IC50 of 295 nM. CC(C)(C)OC(=O)N1CCCC1C(=O)Nc1ccc(C2CCN(C(=O)Nc3c(Cl)cccc3Cl)CC2)cc1 (stereo not drawn) [Compound 51] was tested, and the IC50 was 490 nM. CC(C)(C)OC(=O)N1CCCC(C(=O)Nc2ccc(C3CCN(C(=O)Nc4c(Cl)cccc4Cl)CC3)cc2)C1 (stereo not drawn) [Compound 52] gave an IC50 of 17.4 nM. Compound Cc1nc(C(=O)Nc2ccc(C3CCN(C(=O)Nc4c(Cl)cccc4Cl)CC3)cc2)c(-c2cccc(C(F)(F)F)c2)s1 [Compound 53] has an IC50 of 1480 nM. Compound CCc1nc(C)c(-c2ccccc2C(=O)Nc2ccc(C3CCN(C(=O)Nc4c(Cl)cccc4Cl)CC3)cc2)s1 [Compound 55] has an IC50 of 26.3 nM. Work on O=C(Nc1ccc(C2CCN(C(=O)Nc3c(Cl)cccc3Cl)CC2)cc1)c1ccccc1-c1ccccc1 [Compound 56] yielded an IC50 of 331 nM. Compound O=C(Nc1ccc(C2CCN(C(=O)Nc3c(Cl)cccc3Cl)CC2)cc1)c1ccccc1-c1ccc(Cl)cc1 [Compound 57] has an IC50 of 646 nM. Compound Cc1ccc(C(=O)Nc2ccc(C3CCN(C(=O)Nc4c(Cl)cccc4Cl)CC3)cc2)c(-c2ccc(C(F)(F)F)cc2)c1 [Compound 58] has an IC50 of 355 nM. With Cc1cccc(C(=O)Nc2ccc(C3CCN(C(=O)Nc4c(Cl)cccc4Cl)CC3)cc2)c1-c1ccc(C(F)(F)F)cc1 [Compound 59] the IC50 was 2040 nM. Compound Cc1ccccc1-c1cccc(C(=O)Nc2ccc(C3CCN(C(=O)Nc4c(Cl)cccc4Cl)CC3)cc2)c1 [Compound 60] has an IC50 of 17.4 nM. With CC(C)c1ccc(-c2ccccc2C(=O)Nc2ccc(C3CCN(C(=O)Nc4c(Cl)cccc4Cl)CC3)cc2)cc1 [Compound 61] the IC50 was 427 nM. Work on CC(C)(C)c1ccc(-c2ccccc2C(=O)Nc2ccc(C3CCN(C(=O)Nc4c(Cl)cccc4Cl)CC3)cc2)cc1 [Compound 62] yielded an IC50 of 550 nM. Work on O=C(Nc1ccc(C2CCN(C(=O)Nc3c(Cl)cccc3Cl)CC2)cc1)c1cccc2c1-c1ccccc1C2=O [Compound 63] yielded an IC50 of 120 nM. In the case of Cc1ccc2c(c1)C(=O)c1cc(C)cc(C(=O)Nc3ccc(C4CCN(C(=O)Nc5c(Cl)cccc5Cl)CC4)cc3)c1-2 [Compound 64], the IC50 is reported as 132 nM. In the case of Cc1nc(C(=O)Nc2ccc(N3CCN(C(=O)Nc4c(Cl)cccc4Cl)CC3)cc2)c(-c2cccc(C(F)(F)F)c2)s1 [Compound 65], the IC50 is reported as 204 nM. Cc1ccc(C(=O)Nc2ccc(N3CCN(C(=O)Nc4c(Cl)cccc4Cl)CC3)cc2)c(-c2ccc(C(F)(F)F)cc2)c1 [Compound 66] gave an IC50 of 58.9 nM. Cc1ccc2c(c1)C(=O)c1cc(C)cc(C(=O)Nc3ccc(N4CCN(C(=O)Nc5c(Cl)cccc5Cl)CC4)cc3)c1-2 [Compound 67] showed an IC50 of 148 nM. In the case of O=C(Nc1ccc(N2CCN(C(=S)Nc3ccc(Cl)cc3Cl)CC2)cc1)c1ccccc1-c1ccc(C(F)(F)F)cc1 [Compound 68], the IC50 is reported as 7240 nM. CC(C)(C)NC(=O)N1CCN(c2ccc(NC(=O)c3ccccc3-c3ccc(C(F)(F)F)cc3)cc2)CC1 [Compound 69] showed an IC50 of 7940 nM. Compound O=C(Nc1ccc(N2CCN(C(=O)NCc3ccccc3)CC2)cc1)c1ccccc1-c1ccc(C(F)(F)F)cc1 [Compound 70] has an IC50 of 5500 nM. In the case of O=C(Nc1ccc(N2CCN(C(=O)NCCCc3ccccc3)CC2)cc1)c1ccccc1-c1ccc(C(F)(F)F)cc1 [Compound 71], the IC50 is reported as 3550 nM. In the case of CCOC(=O)c1ccc(NC(=O)N2CCN(c3ccc(NC(=O)c4ccccc4-c4ccc(C(F)(F)F)cc4)cc3)CC2)cc1 [Compound 72], the IC50 is reported as 7760 nM. Compound CN(C)c1ccc(NC(=O)N2CCN(c3ccc(NC(=O)c4ccccc4-c4ccc(C(F)(F)F)cc4)cc3)CC2)cc1 [Compound 73] has an IC50 of 3550 nM. Work on Cc1ccccc1NC(=O)N1CCN(c2ccc(NC(=O)c3ccccc3-c3ccc(C(F)(F)F)cc3)cc2)CC1 [Compound 74] yielded an IC50 of 1100 nM. CCc1ccccc1NC(=O)N1CCN(c2ccc(NC(=O)c3ccccc3-c3ccc(C(F)(F)F)cc3)cc2)CC1 [Compound 75] gave an IC50 of 2140 nM. With CCCc1ccccc1NC(=O)N1CCN(c2ccc(NC(=O)c3ccccc3-c3ccc(C(F)(F)F)cc3)cc2)CC1 [Compound 76] the IC50 was 7590 nM. For CC(C)c1ccccc1NC(=O)N1CCN(c2ccc(NC(=O)c3ccccc3-c3ccc(C(F)(F)F)cc3)cc2)CC1 [Compound 77], the IC50 was 4470 nM. Compound CC(C)(C)c1ccccc1NC(=O)N1CCN(c2ccc(NC(=O)c3ccccc3-c3ccc(C(F)(F)F)cc3)cc2)CC1 [Compound 78] has an IC50 of 7590 nM. CCC(C)c1ccccc1NC(=O)N1CCN(c2ccc(NC(=O)c3ccccc3-c3ccc(C(F)(F)F)cc3)cc2)CC1 (stereo not drawn) [Compound 79] showed an IC50 of 6460 nM. With COc1ccccc1NC(=O)N1CCN(c2ccc(NC(=O)c3ccccc3-c3ccc(C(F)(F)F)cc3)cc2)CC1 [Compound 80] the IC50 was 5500 nM. CCOc1ccccc1NC(=O)N1CCN(c2ccc(NC(=O)c3ccccc3-c3ccc(C(F)(F)F)cc3)cc2)CC1 [Compound 81] was tested, and the IC50 was 8130 nM. In the case of Cc1cccc(C)c1NC(=O)N1CCN(c2ccc(NC(=O)c3ccccc3-c3ccc(C(F)(F)F)cc3)cc2)CC1 [Compound 82], the IC50 is reported as 269 nM. For CCc1cccc(C)c1NC(=O)N1CCN(c2ccc(NC(=O)c3ccccc3-c3ccc(C(F)(F)F)cc3)cc2)CC1 [Compound 83], the IC50 was 1550 nM. COc1cccc(OC)c1NC(=O)N1CCN(c2ccc(NC(=O)c3ccccc3-c3ccc(C(F)(F)F)cc3)cc2)CC1 [Compound 84] gave an IC50 of 5250 nM. Compound Cc1cc(C)c(NC(=O)N2CCN(c3ccc(NC(=O)c4ccccc4-c4ccc(C(F)(F)F)cc4)cc3)CC2)c(C)c1 [Compound 85] has an IC50 of 178 nM. COC(=O)c1ccccc1NC(=O)N1CCN(c2ccc(NC(=O)c3ccccc3-c3ccc(C(F)(F)F)cc3)cc2)CC1 [Compound 86] showed an IC50 of 9770 nM. In the case of CCOC(=O)c1ccccc1NC(=O)N1CCN(c2ccc(NC(=O)c3ccccc3-c3ccc(C(F)(F)F)cc3)cc2)CC1 [Compound 87], the IC50 is reported as 7410 nM. In the case of O=C(Nc1ccc(N2CCN(C(=O)Nc3ccccc3Br)CC2)cc1)c1ccccc1-c1ccc(C(F)(F)F)cc1 [Compound 88], the IC50 is reported as 1380 nM.
